# System: M. catarrhalis A894
# Assay: MIC determination by microdilution in cation-adjusted Mueller-Hinton Broth (NCCLS)
# Assay type: cell-based
# Conditions: Moraxella catarrhalis, A894, microdilution method, pH of the test medium 7.2-7.3
# Procedure: These assays have been performed following the description given in “Methods for dilution Antimicrobial Susceptibility Tests for Bacteria that Grow Aerobically, 4th ed.; Approved standard: NCCLS Document M7-A4; National Committee for Clinical Laboratory Standards: Villanova, Pa., USA, 1997”. Minimal inhibitory concentrations (MICs; mg/l) were determined in cation-adjusted Mueller-Hinton Broth by a microdilution method following NCCLS guidelines (National Committee for Clinical Laboratory Standards. Methods for Dilution Antimicrobial Susceptibility). The pH of the test medium was 7.2-7.3. All Example compounds were tested against several Gram positive and Gram negative bacteria such as S. aureus, E. faecalis, S. pneumoniae, M. catarrhalis or E.coli.
row,MIC,SMILES
1,≤ 0.031 µg/mL,"COc1ccc2ncc3c(c2n1)C(CN1CC[C@@H](NCc2cc4c(cn2)OCCO4)[C@@H](F)C1)CO3 (relative stereo) [Example 19, (2,3-dihydro-[1,4]dioxino[2,3-c]pyridin-7-ylmethyl)-[(3S*,4R*)-3-fluoro-1-((1RS)-8-methoxy-1,2-dihydro-3-oxa-5,9-diaza-cyclopenta[a]naphthalen-1-ylmethyl) -piperidin-4-yl]-amine]"
2,≤ 0.031 µg/mL,"COc1ccc2ncc3c(c2n1)C(CN1CC[C@H](NCc2ccc4c(n2)NC(=O)CS4)[C@H](CO)C1)CO3 (relative stereo) [Example 36, 6-{(3R*,4S*)-[3-hydroxymethyl-1-((1RS)-8-methoxy-1,2-dihydro-3-oxa-5,9-diaza-cyclopenta[a]naphthalen-1-ylmethyl)-piperidin-4-ylamino]-methyl}-4H-pyrido[3,2-b][1,4]thiazin-3-one]"
3,≤ 0.031 µg/mL,"COc1ccc2ncc3c(c2n1)C(CN1CC[C@H](NCc2ccc4c(n2)NC(=O)CO4)[C@H](CO)C1)CO3 (relative stereo) [Example 37, 6-{(3R*,4S*)-[3-hydroxymethyl-1-((1RS)-8-methoxy-1,2-dihydro-3-oxa-5,9-diaza-cyclopenta[a]naphthalen-1-ylmethyl)-piperidin-4-ylamino]-methyl}-4H-pyrido[3,2-b][1,4]oxazin-3-one]"
4,0.063 µg/mL,"COc1ccc2ncc3c(c2n1)C(CN1CC[C@H](NCc2cc4c(nn2)OCCO4)[C@H](CO)C1)CO3 (relative stereo) [Example 38, (3R*,4S*)-[4-[(6,7-dihydro-[1,4]dioxino[2,3-c]pyridazin-3-ylmethyl)-amino]-1-((1RS)-8-methoxy-1,2-dihydro-3-oxa-5,9-diaza-cyclopenta[a]naphthalen-1-ylmethyl)-piperidin-3-yl]-methanol]"
5,≤ 0.031 µg/mL,"COc1ccc2ncc3c(c2n1)[C@@H](CN1CCC(NCc2cc4c(cn2)OCCO4)C(CO)C1)CO3 (stereo partly drawn) [Example 40, [4-[(2,3-dihydro-[1,4]dioxino[2,3-c]pyridin-7-ylmethyl)-amino]-1-((S)-8-methoxy-1,2-dihydro-3-oxa-5,9-diaza-cyclopenta[a]naphthalen-1-ylmethyl)-piperidin-3-yl]-methanol]"

# The remaining lines, values behind:
row,SMILES,MIC
1,"O=C1COc2ccc(CNC3CCN(CC4COc5cnc6ccc(F)cc6c54)CC3)nc2N1 (racemic) [Example 35, rac-6-{[1-(8-fluoro-1,2-dihydro-furo[2,3-c]quinolin-1-ylmethyl)-piperidin-4-ylamino]-methyl}-4H-pyrido[3,2-b][1,4]oxazin-3-one]",≤ 0.031 µg/mL
2,"COc1ccc2ncc3c(c2n1)C(CN1CC[C@@H](NCc2ccc4c(n2)NC(=O)CS4)[C@@H](F)C1)CO3 (relative stereo) [Example 17, 6-{[(3S*,4R*)-3-fluoro-1-((1RS)-8-methoxy-1,2-dihydro-3-oxa-5,9-diaza-cyclopenta[a]naphthalen-1-ylmethyl)-piperidin-4-ylamino]-methyl}-4H-pyrido[3,2-b][1,4]thiazin-3-one]",≤ 0.031 µg/mL
3,"COc1ccc2ncc3c(c2n1)C(CN1CC[C@@H](NCc2ccc4c(n2)NC(=O)CO4)[C@@H](F)C1)CO3 (relative stereo) [Example 18, 6-{[(3S*,4R*)-3-fluoro-1-((1RS)-8-methoxy-1,2-dihydro-3-oxa-5,9-diaza-cyclopenta[a]naphthalen-1-ylmethyl)-piperidin-4-ylamino]-methyl}-4H-pyrido[3,2-b][1,4]oxazin-3-one]",≤ 0.031 µg/mL
4,"COc1ccc2ncc3c(c2n1)[C@H](CN1CCC(NCc2ccc4c(n2)NC(=O)CS4)CC1)CO3 (single isomer, unassigned) [Example 16A]",≤ 0.031 µg/mL
5,"COc1ccc2ncc3c(c2n1)[C@@H](CN1CCC(NCc2ccc4c(n2)NC(=O)CS4)CC1)CO3 (single isomer, unassigned) [Example 16B]",≤ 0.031 µg/mL

# Same assay, conditions: microdilution method, pH of the test medium 7.2-7.3
row,MIC M. catarrhalis A894,SMILES
1,≦0.031 mg/l,COc1ccc2ncc3c(c2n1)C(CN1CCC[C@@H](CNCc2cc4c(cn2)OCCO4)C1)CO3 (mixture of isomers) [Example 29]
2,≦0.031 mg/l,"COc1ccc2ncc3c(c2n1)C(CN1CC2C(C1)C2NCc1cc2c(cn1)OCCO2)CO3 (racemic) [Example 33, (2,3-dihydro-[1,4]dioxino[2,3-c]pyridin-7-ylmethyl)-[(1α,5α,6α)-3-((1RS)-8-methoxy-1,2-dihydro-3-oxa-5,9-diaza-cyclopenta[a]naphthalen-1-ylmethyl)-3-aza-bicyclo[3.1.0]hex-6-yl]amine]"

# The remaining lines, values behind:
row,SMILES,MIC M. catarrhalis A894
1,COc1ccc2ncc3c(c2n1)C(CN1CCC[C@@H](CNCc2ccc4c(n2)NC(=O)CO4)C1)CO3 (mixture of isomers) [Example 27],≦0.031 mg/l
2,COc1ccc2ncc3c(c2n1)C(CN1CCC[C@@H](CNC/C=C/c2cc(F)ccc2F)C1)CO3 (mixture of isomers) [Example 30],≦0.031 mg/l
3,"COc1ccc2ncc3c(c2n1)C(CN1CC2C(C1)C2NCc1ccc2c(n1)NC(=O)CO2)CO3 (racemic) [Example 32, 6-{[(1α,5α,6α)-3-((1RS)-8-methoxy-1,2-dihydro-3-oxa-5,9-diaza-cyclopenta[a]naphthalen-1-ylmethyl)-3-aza-bicyclo[3.1.0]hex-6-ylamino]-methyl}-4H-pyrido[3,2-b][1,4]oxazin-3-one]",≦0.031 mg/l
4,"COc1ccc2ncc3c(c2n1)C(CN1CC2C(C1)C2NCc1ccc2c(n1)NC(=O)CS2)CO3 (racemic) [Example 34, 6-{[(1α,5α,6α)-3-((1RS)-8-methoxy-1,2-dihydro-3-oxa-5,9-diaza-cyclopenta[a]naphthalen-1-ylmethyl)-3-aza-bicyclo[3.1.0]hex-6-ylamino]-methyl}-4H-pyrido[3,2-b][1,4]thiazin-3-one]",≦0.031 mg/l

# — patent US8012961B2, “Tricyclic antibiotics” (Actelion Pharmaceutical Ltd., priority 2008, dated 2011)
